# Reference: patent publication US7595053B2 (priority 2001, dated 2009)
# Read-outs that look alike come from different tables or passages of the source.
# How the values were obtained:
# [1] = test system: Mab Hs-1; format: binding
# [2] = test system: MAb Hs-2; format: binding
# [3] = test system: MAb Hs-3; format: binding
# [4] = test system: Japanese encephalitis virus; format: in vivo, mice (BALB/C, C3H, SWISS/Albino); settings: 50 ug peptide per mouse per dose sc with Freund's adjuvant every 14 days; FIGS. 3A-3C
# [5] = test system: Japanese encephalitis virus; format: in vivo, mice (C3H, BALB/c, SWISS); settings: observed 21 days
# [6] = test system: Japanese encephalitis virus; format: cell-based, Porcine stable kidney cells; sera from mice
# [7] = test system: Japanese encephalitis virus; format: in vivo, BALB/c mice; settings: 40 ug conjugate per mouse per dose with Freund's adjuvant
# [8] = other strains of mice (BALB/c or SWISS)
Substance,"Reactivity with monoclonal antibody Hs-1, OD values at 492 nm [1]","Reactivity with monoclonal antibody Hs-2, OD values at 492 nm [2]","Reactivity with monoclonal antibody Hs-3, OD values at 492 nm [3]",other results
AIVVEYSS [269-AIVVEYSS-276],0.696,0.041,0.115,Reaction with Mab Hs-1 (in words) [1]: react with Mab Hs-1
ANDKPTLD [35-ANDKPTLD-42],0.022,0.016,0.052,
DKPTLDVR [37-DKPTLDVR-44],0.029,0.016,0.035,
DVRMINIE [42-DVRMINIE-49],0.155,0.008,0.043,
EYSSSVKL [273-EYSSSVKL-280],0.538,0.045,0.110,
H-SENHGNYSAQVGASQGSIGGVFNSIGKAVHQVFG-OH [chimeric peptide],,,,"Anti Japanese encephalitis virus response by ELISA (in words) [4]: capable of eliciting an immune response against JE virus; Resistance to lethal virus challenge (survival) ([5]; C3H mice, challenge virus dose 2.3 log LD 50 i.p. followed by 1% starch i.c., FIG. 5): able to resist the virus challenge; Resistance to lethal virus challenge (survival) [5, 8]: nor were they able to resist the virus challenge; Neutralization of Japanese encephalitis virus by anti-peptide sera [6, 8]: not able to neutralize the virus; Neutralization of Japanese encephalitis virus by anti-peptide sera ([6]; sera from C3H mice, diluted 1:50, plaque reduction, FIG. 4): capable of neutralizing Japanese encephalitis virus"
IMANDKPT [33-IMANDKPT-40],0.110,0.016,0.017,
IVVEYSSS [270-IVVEYSSS-277],0.637,0.030,0.112,
LDVRMINI [41-LDVRMINI-48],0.277,0.007,0.082,
MINIEASQ [45-MINIEASQ-52],0.177,0.001,0.080,
NHGNYSAQVGASQ [151-NHGNYSAQVGASQ-163],0.074,0.294,0.258,
NIEASQLA [47-NIEASQLA-54],0.07,0.003,0.081,
Ovalbumin,,,,"Reactivity of anti peptide sera with Japanese encephalitis virus by ELISA, mean optical density ([7]; sera collected on post inoculation day 7): 0.127 ± 0.022; Reactivity of anti peptide sera with Japanese encephalitis virus by ELISA, mean optical density ([7]; sera collected on post inoculation day 14): 0.116 ± 0.072; Reactivity of anti peptide sera with Japanese encephalitis virus by ELISA, mean optical density ([7]; sera collected on post inoculation day 21): 0.153 ± 0.003"
PTLDVRMI [39-PTLDVRMI-46],0.313,0.006,0.025,Reaction with Mab Hs-1 (in words) [1]: react with Mab Hs-1
SENHGNYSAQVGASQ [149-SENHGNYSAQVGASQ-163],0.093,0.415,0.377,Anti Japanese encephalitis virus response by ELISA (in words) [4]: capable of eliciting an immune response against JE virus
SSSVKLTS [275-SSSVKLTS-282],0.765,0.053,0.136,
SSVKLTSG [276-SSVKLTSG-283],0.447,0.061,0.123,
TLDVRMIN [40-TLDVRMIN-47],0.329,0.008,0.064,
VEYSSSVK [272-VEYSSSVK-279],0.290,0.040,0.106,
VRMINIEA [43-VRMINIEA-50],0.338,0.012,0.133,
VVEYSSSV [271-VVEYSSSV-278],0.659,0.029,0.090,
YSAQVGASQ [155-YSAQVGASQ-163],0.118,0.492,0.334,
YSAQVGASQAAKF [155-YSAQVGASQAAKF-167],0.106,0.501,0.377,
YSSSVKLT [274-YSSSVKLT-281],0.616,0.054,0.153,
